{"source": "paper PMC5243976", "about": "(Iranian Journal of Basic Medical Sciences, 2017)", "note": "pIC50: −log10 of the molar value."}
{"target": "acetylcholinesterase from electric eel source (AChE, E.C. 3.1.1.7, Type V-S) (Electrophorus electricus, UniProt O42275)", "sequence (O42275 24-633)": "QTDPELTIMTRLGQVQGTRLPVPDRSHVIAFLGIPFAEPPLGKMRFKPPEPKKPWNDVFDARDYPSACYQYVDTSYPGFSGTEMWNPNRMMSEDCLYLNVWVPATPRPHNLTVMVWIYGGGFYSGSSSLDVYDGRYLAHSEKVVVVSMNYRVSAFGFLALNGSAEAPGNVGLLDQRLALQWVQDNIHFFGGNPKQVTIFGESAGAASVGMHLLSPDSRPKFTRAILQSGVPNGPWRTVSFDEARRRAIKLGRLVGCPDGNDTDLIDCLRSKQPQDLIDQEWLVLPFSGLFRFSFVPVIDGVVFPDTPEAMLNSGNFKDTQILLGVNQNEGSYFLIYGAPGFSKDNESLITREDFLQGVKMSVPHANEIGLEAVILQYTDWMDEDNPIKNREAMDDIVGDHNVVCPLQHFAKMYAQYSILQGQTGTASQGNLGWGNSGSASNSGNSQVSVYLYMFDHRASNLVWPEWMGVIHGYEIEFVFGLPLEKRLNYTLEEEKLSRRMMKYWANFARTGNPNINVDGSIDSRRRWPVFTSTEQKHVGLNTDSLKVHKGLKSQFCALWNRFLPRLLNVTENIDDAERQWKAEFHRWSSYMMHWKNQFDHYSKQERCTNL", "assay": "Ellman test, anti-acetylcholinesterase activity", "type": "biochemical"}
{"smiles": "COc1ccc(C(=O)N2CCN(CCN3C(=O)c4ccccc4C3=O)CC2)cc1", "note": "[Compound 4i, 2-(2-(4-(4-Methoxybenzoyl)piperazin-1-yl)ethyl) isoindoline-1,3-dione]", "pIC50": 7.69}
{"smiles": "O=C(c1ccc(Cl)cc1)N1CCN(CCN2C(=O)c3ccccc3C2=O)CC1", "note": "[Compound 4c, 2-(2-(4-(4-Chlorobenzoyl)piperazin-1-yl)ethyl) isoindoline-1,3-dione]", "pIC50": "< 3.00"}
{"smiles": "O=C(c1ccccc1[N+](=O)[O-])N1CCN(CCN2C(=O)c3ccccc3C2=O)CC1", "note": "[Compound 4j, 2-(2-(4-(2-Nitrobenzoyl)piperazin-1-yl)ethyl) isoindoline-1,3-dione]", "pIC50": 3.85}
{"smiles": "COc1ccccc1C(=O)N1CCN(CCN2C(=O)c3ccccc3C2=O)CC1", "note": "[Compound 4g, 2-(2-(4-(2-Methoxybenzoyl)piperazin-1-yl)ethyl) isoindoline-1,3-dione]", "pIC50": 4.00}
{"smiles": "O=C(c1ccccc1F)N1CCN(CCN2C(=O)c3ccccc3C2=O)CC1", "note": "[Compound 4d, 2-(2-(4-(2-Fluorobenzoyl)piperazin-1-yl)ethyl) isoindoline-1,3-dione]", "pIC50": 5.44}
{"smiles": "O=C(c1ccccc1Cl)N1CCN(CCN2C(=O)c3ccccc3C2=O)CC1", "note": "[Compound 4a, 2-(2-(4-(2-Chlorobenzoyl)piperazin-1-yl)ethyl) isoindoline-1,3-dione]", "pIC50": 3.48}
{"smiles": "COc1cccc(C(=O)N2CCN(CCN3C(=O)c4ccccc4C3=O)CC2)c1", "note": "[Compound 4h, 2-(2-(4-(3-Methoxybenzoyl)piperazin-1-yl)ethyl) isoindoline-1,3-dione]", "pIC50": 5.89}
{"smiles": "O=C(c1cccc(F)c1)N1CCN(CCN2C(=O)c3ccccc3C2=O)CC1", "note": "[Compound 4e, 2-(2-(4-(3-Fluorobenzoyl)piperazin-1-yl)ethyl) isoindoline-1,3-dione]", "pIC50": 8.15}
{"smiles": "O=C(c1cccc(Cl)c1)N1CCN(CCN2C(=O)c3ccccc3C2=O)CC1", "note": "[Compound 4b, 2-(2-(4-(3-Chlorobenzoyl)piperazin-1-yl)ethyl) isoindoline-1,3-dione]", "pIC50": 4.15}
{"smiles": "O=C(c1ccc(F)cc1)N1CCN(CCN2C(=O)c3ccccc3C2=O)CC1", "note": "[Compound 4f, 2-(2-(4-(4-Fluorobenzoyl)piperazin-1-yl)ethyl) isoindoline-1,3-dione]", "pIC50": 4.30}
